In patent US20070043003A1, “Novel compounds for the prophylaxis and treatment of inflammatory bowel diseases” (Hikma Pharmaceuticals Co., Ltd., priority 2005, published 2007):
Where “and” joins values, the source holds several entries; their conditions need not be identical. Identical values can stand only once.

Key:
[1] = tested on: TNB (trinitrobenzenesulfonic acid)-induced ulcerative colitis; experiment: Rats with TNB-induced ulcerative colitis, macroscopic and microscopic examination of intestine, colon and cecum; format: in vivo, rat; parameters: key to Overall degree of inflammation / Mucosal inflammation and ulceration / Submucosal inflammation / Full thickness inflammation: − = No inflammation (normal); ± = Very minimal mucosal inflammation; + = Mild; +2 = Moderate; +3 = Severe; conditions: for Full thickness inflammation / Mucosal inflammation and ulceration / Overall degree of inflammation / Submucosal inflammation: one rat per row; for activity against intestinal bowel disease: compared to the known compound 5ASA
Method: Rats with TNB (trinitrobenzenesulfonic acid)-induced ulcerative colitis were used as an animal model. 28 rats were randomly grouped (A, B, C1, C2, D1 and D2). Group A is used as positive control and each of the other three groups received a predetermined dose of compounds under testing (see Table 3). Animals were fasted for one night before taking the TNB solution. All animals received a solution (0.25 ml) of TNB in methylcelullose solution (50% methylcellulose in absolute ethanol) containing 20 mg of TNB. The TNB solution was administered by intracolonic administration using a syringe and rubber canula. The canula was inserted into the lumen of the colon via the anus. The cannula was advanced so that its tip was 8 cm from the anus. […] Group A took 0.5 ml of the suspension containing 2.5 mg of methylcellulose solution twice daily. • 2. […] The treatments were given for eight days, and on the 9th day the animals were sacrificed and opened along their abdomen for evaluation. The animals were subjected to the following testing • 1. Physical testing, as looking at the weight, […], general health, etc. • 2. Looking at the intestine before opening, colouration, thickness, etc. 3. Dissecting the intestine the colon and the cecum and examining them macroscopically and microscopically.

[2] = upon oral administration; cited from earlier work
[3] = Group B: 5 mg 5ASA orally twice daily for eight days
[4] = Group D-1: 12 mg compound 5 orally twice daily for eight days
[5] = Group D-2: 18 mg compound 5 orally twice daily for eight days
[6] = Group C-1: 18 mg compound 9 orally twice daily for eight days
[7] = Group C-2: 28 mg compound 9 orally twice daily for eight days

With `Nc1ccc(O)c(C(=O)O)c1` [5ASA, 5-aminosalicylic acid, reference compound] as the compound, how does the Full thickness inflammation [1, 3] read?
The Full thickness inflammation was “+”.

What about the “Mucosal inflammation and ulceration” value [1, 3] of the same compound?
The value was “+”.

What about the “Overall degree of inflammation” value [1, 3] of the same compound?
The value was “+2 (4×) and +3 and +1”.

What about the Submucosal inflammation [1, 3] of the same compound?
Its Submucosal inflammation is “+”.

With `O=C(O)c1cc(N=Nc2ccc(S(=O)(=O)Nc3ccccn3)cc2)ccc1O` [SS, 2-Hydroxy-5-[4-(2-pyridylsulfamoyl)phenylazo]benzoic acid] as the compound, how does the “fraction of a given dose absorbed from the small intestine” value [2] read?
The value was “about one-third”.

For `Nc1ccc(-c2nc3cc(CC(=O)O)ccc3o2)cc1` [compound 5, 4-aminophenylbenzoxazole-5-acetic acid], which Full thickness inflammation [1, 4] is on record?
The Full thickness inflammation was “+ (3×) and − (2×)”.

And the “Mucosal inflammation and ulceration” value [1, 4]?
Its value is “+ (4×) and −”.

What about the “Overall degree of inflammation” value [1, 4] of the same compound?
Its value is “+1 (3×) and ± and −”.

What about the Submucosal inflammation [1, 4] of the same compound?
The Submucosal inflammation was “+ (3×) and − (2×)”.

And the Full thickness inflammation [1, 5]?
Its Full thickness inflammation is “−”.

And the “Mucosal inflammation and ulceration” value [1, 5]?
The value was “+”.

And the “Overall degree of inflammation” value [1, 5]?
The value was “+1”.

What about the Submucosal inflammation [1, 5] of the same compound?
The Submucosal inflammation was “+”.

And the “activity against intestinal bowel disease” value [1]?
The value was “significantly higher activity”.

For `O=C(O)Cc1ccc2oc(-c3ccc(N=Nc4ccc(O)c(C(=O)O)c4)cc3)nc2c1` [compound 9, 2-Hydroxy-5-[4-(benzoxazol-2-yl-5-acetic acid)phenylazo]benzoic acid], which Full thickness inflammation [1, 6] is on record?
The Full thickness inflammation was “−”.

What about the “Mucosal inflammation and ulceration” value [1, 6] of the same compound?
Its value is “− and + (5×)”.

And the “Overall degree of inflammation” value [1, 6]?
The value was “− and ± (3×) and +1 (2×)”.

What about the Submucosal inflammation [1, 6] of the same compound?
The Submucosal inflammation was “− (3×) and ± and + (2×)”.

What about the Full thickness inflammation [1, 7] of the same compound?
The Full thickness inflammation was “−”.

And the “Mucosal inflammation and ulceration” value [1, 7]?
The value was “+”.

And the “Overall degree of inflammation” value [1, 7]?
The value was “± (2×) and +1”.

And the Submucosal inflammation [1, 7]?
The Submucosal inflammation was “± (2×) and +”.

What about the “activity against intestinal bowel disease” value [1] of the same compound?
Its value is “significantly higher activity”.
